Measured values as given in patent publication US4405625A, “Method of treating hyperglycemia with 1,3-dioxo-1H-benz[de]isoquinoline-2(3H)-acetic acid” (Ayerst, McKenna and Harrison Limited, priority 1979, dated 1983).

What was measured:
plasma glucose = test: Intravenous glucose tolerance test in anaesthetized fasted non-diabetic male intact rats: plasma glucose; format: in vivo, rat (male Sprague Dawley); details: 0.75 mmol/kg i.v., mean±S.E.M.
Protocol: (§1) A description of this experiment is as follows.
(§2) Male Sprague Dawley rats (200-250 g, Canadian Breeding Laboratories, St. Constant, Quebec, Canada) were used in the experiment. There were 11 animals in the group. The animals were kept in a room with constant light-dark cycle and temperature. They were allowed food (Purina Lab Chow™) and water ad libitum for at least three days before being utilized. The animals were then fasted for 24 hours and anaesthetized with nembutal (50 mg/kg, intraperitoneally; Abbott Laboratories, Montreal, Quebec, Canada.) The jugular veins were exposed and a fasting blood sample was drawn by the transmusculature puncture method, Y. Kato, J. Dupre and J. C. Beck, Endocrinology, 93, 135 (1973), employing a sodium heparin (The Upjohn Company, Don Mills, Ontario, Canada) washed syringe. Alrestatin sodium at a dose of 0.75 mmol/kg was administered as a bolus in the jugular vein followed immediately by a bolus of D-glucose (300 mg/kg; British Drug House, Montreal, Quebec, Canada). Control animals received an injection of sodium chloride (0.75 mmol/kg) instead of the alrestatin sodium. Blood samples were drawn at 5, 10 and 15 minutes after injection of the glucose. The wounds then were closed with autoclips (Clay Adams Co., Parsippany, N. J., U.S.A.) and the animals were allowed food and water for another three day period before the experiment was repeated, i.e., on day 4. […]
(§3) Plasma insulin was measured by radioimmunoassay using a charcoal separation method, V. Herbert et al, J. Clin. Endocrinol., 25, 1375 (1965). […] Plasma glucose was measured by a glucose oxidase method employing a Beckman Glucose Analyser, see Beckman Company Manual, Palo Alto, Calif., U.S.A.
(§4) The results, noted below, are expressed as mean± S.E.M. The statistical significance of changes in the concentration of plasma glucose (mg/100 ml) and insulin (μU/ml), in response to alrestatin or the vehicle, from basal fasting values was determined on the differences between group means by the Student's […]. […]

plasma insulin [1] = test: Intravenous glucose tolerance test in anaesthetized fasted non-diabetic male intact rats: plasma insulin; format: in vivo, rat (male Sprague Dawley); details: 0.75 mmol/kg i.v.
Protocol: as §1, §2, §3, §4

plasma glucagon = test: Arginine-induced glucagon release in intact rats; format: in vivo, rat (male Sprague-Dawley)
Protocol: (§5) After light deithyl ether anaesthetization, the animals were injected with a bolus of saline or alrestatin (sodium salt form in 0.3 ml saline/100 g of body weight) in the external jugular vein followed immediately with a bolus of arginine-HCl (British Drug House ) at a dose of 100 mg/100 g of body weight, cf. […] Vehicle control animals received a second injection of saline. Five minutes later trunk blood was collected by decapitation into chilled tubes containing sodium heparin (Upjohn) and aprotinin(Trasylol™, Boehringer-Ingelheim Dorval, Quebec, Canada) (20 U and 1000 KIU per ml whole blood, respectively). Plasma was collected after centrifugation, stored at -20° C. and assayed for immunoreactive glucagon and insulin levels within 2 weeks.
(§6) Rat insulin purchased from Novo A/S, Copenhagen, Denmark, was used as unlabelled standard. […] Glucagon antiserum (Antiserum 30K, purchased from Dr. R. H. Unger, Houston, Tex., U.S.A.) was employed in the assay. […] Metab. […] Metab. […] Antibody bound hormone was separated from free hormone by conventional charcoal-dextran methods.

plasma insulin [2] = test: Arginine-induced insulin release in intact rats; format: in vivo, rat (male Sprague-Dawley)
Protocol: as §5, §6

blood glucose = test: Clinical tests in diabetic patients: blood glucose levels; format: in vivo, human (diabetic patients)
Description: All patients were on a controlled diet. Patient A also was receiving the oral antidiabetic agent, glyburide (Daonil™) and patient C also was receiving the diuretic chlorthalidone (Hygroton™).

[3] = 200 mg/kg i.v. immediately before arginine 100 mg/100 g
[4] = 35-200 mg/kg i.v. immediately before arginine 100 mg/100 g

Q: How did the “mean incremental change of plasma glucose” value (plasma glucose; 5 min after i.v. glucose (300 mg/kg), vehicle 96±4.7, NS) turn out when `O=C(O)CN1C(=O)c2cccc3cccc(c23)C1=O` [alrestatin sodium] was run?
A: 83.3±5.4 mg %

Q: And the “mean incremental change of plasma glucose” value (plasma glucose; 10 min after i.v. glucose (300 mg/kg), vehicle 82.8±7.5, p<0.05)?
A: 58.8±8.5 mg %

Q: What about the “mean incremental change of plasma glucose” value (plasma glucose; 15 min after i.v. glucose (300 mg/kg), vehicle 78.4±10.7, p<0.05) of the same compound?
A: 45.4±9.6 mg %

Q: What about the “mean incremental change of plasma insulin” value (plasma insulin [1]; 5 min after i.v. glucose (300 mg/kg), mean±S.E.M., vehicle 32.9±5.2, p<0.02) of the same compound?
A: 76.9±16.7 μU/ml

Q: And the “plasma insulin levels vs vehicle” value (plasma insulin [1]; 10 min after i.v. glucose (300 mg/kg))?
A: significantly greater

Q: What about the “plasma insulin levels vs vehicle” value (plasma insulin [1]; 15 min after i.v. glucose (300 mg/kg)) of the same compound?
A: greater at 15 minutes in the alrestatin treated group although the difference was not significant

Q: What about the “effect on arginine-stimulated glucagon increase” value (plasma glucagon; [3]) of the same compound?
A: completely prevented the increase caused by arginine

Q: What about the “effect on arginine-stimulated glucagon concentrations” value (plasma glucagon; [4]) of the same compound?
A: decreased the glucagon concentrations

Q: And the “increase of arginine-induced insulin release” value (plasma insulin [2]; [3])?
A: about 2.5 fold

Q: And the “effect on arginine-induced insulin release” value (plasma insulin [2]; [4])?
A: increased the insulin release observed with arginine

Q: And the “lowering of blood sugar levels” value (blood glucose; 50 mg/kg/day i.v. for five days, diabetic patients)?
A: effective in lowering blood sugar levels

Q: And the “blood glucose, fasting” value (blood glucose; Patient A (also on glyburide), day 1, 50 mg/kg/day i.v., pretreatment 162)?
A: 132 mg %

Q: And the “blood glucose, 2hr postprandial” value (blood glucose; Patient A (also on glyburide), day 1, 50 mg/kg/day i.v., pretreatment 276)?
A: 185 mg %

Q: And the “blood glucose, fasting” value (blood glucose; Patient A (also on glyburide), day 2, 50 mg/kg/day i.v., pretreatment 162)?
A: 130 mg %

Q: And the “blood glucose, 2hr postprandial” value (blood glucose; Patient A (also on glyburide), day 2, 50 mg/kg/day i.v., pretreatment 276)?
A: 215 mg %

Q: What about the “blood glucose, fasting” value (blood glucose; Patient A (also on glyburide), day 3, 50 mg/kg/day i.v., pretreatment 162) of the same compound?
A: 97 mg %

Q: What about the “blood glucose, 2hr postprandial” value (blood glucose; Patient A (also on glyburide), day 3, 50 mg/kg/day i.v., pretreatment 276) of the same compound?
A: 155 mg %

Q: What about the “blood glucose, fasting” value (blood glucose; Patient A (also on glyburide), day 4, 50 mg/kg/day i.v., pretreatment 162) of the same compound?
A: 90 mg %

Q: And the “blood glucose, 2hr postprandial” value (blood glucose; Patient A (also on glyburide), day 4, 50 mg/kg/day i.v., pretreatment 276)?
A: 117 mg %

Q: What about the “blood glucose, fasting” value (blood glucose; Patient A (also on glyburide), day 5, 50 mg/kg/day i.v., pretreatment 162) of the same compound?
A: 132 mg %

Q: What about the “blood glucose, 2hr postprandial” value (blood glucose; Patient A (also on glyburide), day 5, 50 mg/kg/day i.v., pretreatment 276) of the same compound?
A: 230 mg %

Q: What about the “blood glucose, fasting” value (blood glucose; Patient A (also on glyburide), follow-up after 5 days i.v. treatment, pretreatment 162) of the same compound?
A: 111 mg %

Q: What about the “blood glucose, 2hr postprandial” value (blood glucose; Patient A (also on glyburide), follow-up after 5 days i.v. treatment, pretreatment 276) of the same compound?
A: 207 mg %

Q: And the “blood glucose, fasting” value (blood glucose; Patient B, day 1, 50 mg/kg/day i.v., pretreatment 90)?
A: 92 mg %

Q: And the “blood glucose, 2hr postprandial” value (blood glucose; Patient B, day 1, 50 mg/kg/day i.v., pretreatment 119)?
A: 72 mg %

Q: What about the “blood glucose, fasting” value (blood glucose; Patient B, day 2, 50 mg/kg/day i.v., pretreatment 90) of the same compound?
A: 89 mg %

Q: And the “blood glucose, 2hr postprandial” value (blood glucose; Patient B, day 2, 50 mg/kg/day i.v., pretreatment 119)?
A: 86 mg %

Q: And the “blood glucose, fasting” value (blood glucose; Patient B, day 3, 50 mg/kg/day i.v., pretreatment 90)?
A: 86 mg %

Q: What about the “blood glucose, 2hr postprandial” value (blood glucose; Patient B, day 3, 50 mg/kg/day i.v., pretreatment 119) of the same compound?
A: 94 mg %

Q: And the “blood glucose, fasting” value (blood glucose; Patient B, day 4, 50 mg/kg/day i.v., pretreatment 90)?
A: 50 mg %

Q: And the “blood glucose, 2hr postprandial” value (blood glucose; Patient B, day 4, 50 mg/kg/day i.v., pretreatment 119)?
A: 60 mg %

Q: What about the “blood glucose, fasting” value (blood glucose; Patient B, day 5, 50 mg/kg/day i.v., pretreatment 90) of the same compound?
A: 50 mg %

Q: What about the “blood glucose, 2hr postprandial” value (blood glucose; Patient B, day 5, 50 mg/kg/day i.v., pretreatment 119) of the same compound?
A: 43 mg %

Q: What about the “blood glucose, fasting” value (blood glucose; Patient B, follow-up after 5 days i.v. treatment, pretreatment 90) of the same compound?
A: 81 mg %

Q: What about the “blood glucose, 2hr postprandial” value (blood glucose; Patient B, follow-up after 5 days i.v. treatment, pretreatment 119) of the same compound?
A: 87 mg %

Q: And the “blood glucose, fasting” value (blood glucose; Patient C (also on chlorthalidone), day 1, 50 mg/kg/day i.v., pretreatment 95)?
A: 133 mg %

Q: What about the “blood glucose, 2hr postprandial” value (blood glucose; Patient C (also on chlorthalidone), day 1, 50 mg/kg/day i.v., pretreatment 190) of the same compound?
A: 128 mg %

Q: And the “blood glucose, fasting” value (blood glucose; Patient C (also on chlorthalidone), day 2, 50 mg/kg/day i.v., pretreatment 95)?
A: 111 mg %

Q: And the “blood glucose, 2hr postprandial” value (blood glucose; Patient C (also on chlorthalidone), day 2, 50 mg/kg/day i.v., pretreatment 190)?
A: 145 mg %

Q: What about the “blood glucose, fasting” value (blood glucose; Patient C (also on chlorthalidone), day 3, 50 mg/kg/day i.v., pretreatment 95) of the same compound?
A: 104 mg %

Q: And the “blood glucose, 2hr postprandial” value (blood glucose; Patient C (also on chlorthalidone), day 3, 50 mg/kg/day i.v., pretreatment 190)?
A: 141 mg %

Q: What about the “blood glucose, fasting” value (blood glucose; Patient C (also on chlorthalidone), day 4, 50 mg/kg/day i.v., pretreatment 95) of the same compound?
A: 50 mg %

Q: What about the “blood glucose, 2hr postprandial” value (blood glucose; Patient C (also on chlorthalidone), day 4, 50 mg/kg/day i.v., pretreatment 190) of the same compound?
A: 90 mg %

Q: And the “blood glucose, fasting” value (blood glucose; Patient C (also on chlorthalidone), day 5, 50 mg/kg/day i.v., pretreatment 95)?
A: 77 mg %

Q: And the “blood glucose, 2hr postprandial” value (blood glucose; Patient C (also on chlorthalidone), day 5, 50 mg/kg/day i.v., pretreatment 190)?
A: 106 mg %

Q: What about the “blood glucose, fasting” value (blood glucose; Patient C (also on chlorthalidone), follow-up after 5 days i.v. treatment, pretreatment 95) of the same compound?
A: 119 mg %

Q: What about the “blood glucose, 2hr postprandial” value (blood glucose; Patient C (also on chlorthalidone), follow-up after 5 days i.v. treatment, pretreatment 190) of the same compound?
A: 149 mg %
